# PMC8617031, “Development of a BCL-xL and BCL-2 dual degrader with improved anti-leukemic activity,” (Nature Communications, 2021)
# “And” between values parts separate entries of the source, which are not always exact repeats. Equal entries are not always repeated. Where two headings read alike, the source gives them in different places.
# Biological target: T1, His-tagged BCL-xL (Homo sapiens, UniProt Q07817)
# T1 construct: purchased Sigma-Aldrich SRP0187
# Experiment: AlphaScreen competitive binary binding, BCL-xL (biotin-BAD peptide)
# Description: The reagents were diluted in a buffer containing 250 mM HEPES pH 7.5, 1 M NaCl, 1% BSA, and 0.05% Tween-80. His-tagged BCL-xL (0.5 nM, Cat. No. SRP0187, Sigma-Aldrich) or BCL-2 (1 nM, Cat. No. SRP0186, Sigma-Aldrich) were incubated with serial diluted 753a or 753b and 2 nM biotin-tagged BAD (biotin-[…] amino-terminal, AnaSpec, for BCL-xL) or 10 nM BIM peptides (biotin-[…] N-terminal, AnaSpec, for BCL-2) to a final volume of 40 µl in a 96-well PCR plate. […] After incubation for 2 h, 5 µl 6× His-acceptor beads (Cat. No. AL128M, PerkinElmer) were added to each well at 20 µg/ml final concentration and incubated for 1 h. Then 5 µl streptavidin-donor beads were added (Cat. No. 6760002, PerkinElmer) to each well at 20 µg/ml final concentration and incubated for 45 min. At the end of the incubation period, 17 µl of each sample was transferred in adjacent wells of 384-well proxy plate (Cat. No. 6008280, PerkinElmer). The plate was scanned using the Alpha program on Biotek’s Synergy Neo2 multimode plate reader. The inhibition constant (Ki) was calculated using the non-linear regression, one site, competitive binding, Fit Ki function on GraphPad Prism 9 software, based on experimentally determined dissociation constant (Kd) for each protein–peptide pair.
# T1 sequence (Q07817 whole entry): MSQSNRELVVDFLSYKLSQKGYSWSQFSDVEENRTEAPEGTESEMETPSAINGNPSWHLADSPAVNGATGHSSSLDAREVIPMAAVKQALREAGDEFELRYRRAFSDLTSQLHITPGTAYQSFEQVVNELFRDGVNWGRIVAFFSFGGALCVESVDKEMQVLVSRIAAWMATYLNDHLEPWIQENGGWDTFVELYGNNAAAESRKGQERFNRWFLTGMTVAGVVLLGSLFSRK
compound,measurement,setting,value
"CC1(C)CCC(c2ccc(Cl)cc2)=C(CN2CCN(c3ccc(C(=O)NS(=O)(=O)c4ccc(N[C@H](CCN5CCOCC5)CSc5ccccc5)c(S(=O)(=O)C(F)(F)F)c4)cc3)CC2)C1 [ABT263, navitoclax]",Alpha signal normalised to Maximum/Minimum (inhibition),"BCL-xL Rep-1, 0.078125 uM, 0.078125 µM",89.8384
same,inhibition at 0.078125 µM,"BCL-xL Rep-1, 0.078125 uM, read-out: Alpha signal normalised to Maximum/Minimum (inhibition)",90.1%
same,Alpha signal normalised to Maximum/Minimum (inhibition),"BCL-xL Rep-1, 0.3125 uM, 0.3125 µM",98.7717
same,inhibition at 0.3125 µM,"BCL-xL Rep-1, 0.3125 uM, read-out: Alpha signal normalised to Maximum/Minimum (inhibition)",97.2%
same,Alpha signal normalised to Maximum/Minimum (inhibition),"BCL-xL Rep-1, 1.25 uM, 1.25 µM",99.2115
same,inhibition at 1.25 µM,"BCL-xL Rep-1, 1.25 uM, read-out: Alpha signal normalised to Maximum/Minimum (inhibition)",98.7%
same,Alpha signal normalised to Maximum/Minimum (inhibition),"BCL-xL Rep-1, 5 uM, 5 µM",98.674
same,inhibition at 5 µM,"BCL-xL Rep-1, 5 uM, read-out: Alpha signal normalised to Maximum/Minimum (inhibition)",99.7%
same,Alpha signal (raw counts),"BCL-xL Rep-1, plate row B, 5 uM",24284 and 38579
same,Alpha signal (raw counts),"BCL-xL Rep-1, plate row C, 1.25 uM",38335 and 30879
same,Alpha signal (raw counts),"BCL-xL Rep-1, plate row D, 0.3125 uM",59200 and 37180
same,Alpha signal (raw counts),"BCL-xL Rep-1, plate row E, 0.078125 uM",160796 and 165155
same,Alpha signal (raw counts),"BCL-xL Rep-1, plate row F, 0.0195312 uM",437862 and 392628
same,Alpha signal (raw counts),"BCL-xL Rep-1, plate row G, 0.00488281 uM",787377 and 721620
same,Alpha signal (raw counts),"BCL-xL Rep-1, plate row H, 0.0012207 uM",1053850 and 1038882
same,Alpha signal (raw counts),"BCL-xL Rep-1, plate row I, 0.000305176 uM",993971 and 1044138
same,Alpha signal (raw counts),"BCL-xL Rep-1, plate row J, 7.62939e-5 uM",1100587 and 1144199
same,Alpha signal (raw counts),"BCL-xL Rep-1, plate row K, 1.90735e-5 uM",1236998 and 1302696
same,Alpha signal (raw counts),"BCL-xL Rep-2, 7.62939e-5 uM",1461205 and 1360749
same,Alpha signal normalised to Maximum/Minimum (inhibition),"BCL-xL Rep-2, 0.000305176 uM, 0.000305176 µM",14.6957
same,inhibition at 0.000305176 µM,"BCL-xL Rep-2, 0.000305176 uM, read-out: Alpha signal normalised to Maximum/Minimum (inhibition)",13%
same,Alpha signal normalised to Maximum/Minimum (inhibition),"BCL-xL Rep-2, 0.0012207 uM, 0.0012207 µM",16.3472
same,inhibition at 0.0012207 µM,"BCL-xL Rep-2, 0.0012207 uM, read-out: Alpha signal normalised to Maximum/Minimum (inhibition)",24%
same,Alpha signal normalised to Maximum/Minimum (inhibition),"BCL-xL Rep-2, 0.00488281 uM, 0.00488281 µM",45.5298
same,inhibition at 0.00488281 µM,"BCL-xL Rep-2, 0.00488281 uM, read-out: Alpha signal normalised to Maximum/Minimum (inhibition)",46%
same,Alpha signal normalised to Maximum/Minimum (inhibition),"BCL-xL Rep-2, 0.0195312 uM, 0.0195312 µM",63.2992
same,inhibition at 0.0195312 µM,"BCL-xL Rep-2, 0.0195312 uM, read-out: Alpha signal normalised to Maximum/Minimum (inhibition)",60.9%
same,Alpha signal normalised to Maximum/Minimum (inhibition),"BCL-xL Rep-2, 0.078125 uM, 0.078125 µM",91.4929
same,inhibition at 0.078125 µM,"BCL-xL Rep-2, 0.078125 uM, read-out: Alpha signal normalised to Maximum/Minimum (inhibition)",89.7%
same,Alpha signal normalised to Maximum/Minimum (inhibition),"BCL-xL Rep-2, 0.3125 uM, 0.3125 µM",98.2227
same,inhibition at 0.3125 µM,"BCL-xL Rep-2, 0.3125 uM, read-out: Alpha signal normalised to Maximum/Minimum (inhibition)",97.4%
same,Alpha signal normalised to Maximum/Minimum (inhibition),"BCL-xL Rep-2, 1.25 uM, 1.25 µM",99.5826
same,inhibition at 1.25 µM,"BCL-xL Rep-2, 1.25 uM, read-out: Alpha signal normalised to Maximum/Minimum (inhibition)",100%
same,Alpha signal normalised to Maximum/Minimum (inhibition),"BCL-xL Rep-2, 5 uM, 5 µM",99.8318
same,inhibition at 5 µM,"BCL-xL Rep-2, 5 uM, read-out: Alpha signal normalised to Maximum/Minimum (inhibition)",99%
same,Alpha signal (raw counts),"BCL-xL Rep-2, plate row B, 5 uM",36635 and 25525
same,Alpha signal (raw counts),"BCL-xL Rep-2, plate row C, 1.25 uM",22256 and 28959
same,Alpha signal (raw counts),"BCL-xL Rep-2, plate row D, 0.3125 uM",58501 and 47695
same,Alpha signal (raw counts),"BCL-xL Rep-2, plate row E, 0.078125 uM",165323 and 140416
same,Alpha signal (raw counts),"BCL-xL Rep-2, plate row F, 0.0195312 uM",561843 and 528857
same,Alpha signal (raw counts),"BCL-xL Rep-2, plate row G, 0.00488281 uM",767546 and 773677
same,Alpha signal (raw counts),"BCL-xL Rep-2, plate row H, 0.0012207 uM",1070160 and 1175743
same,Alpha signal (raw counts),"BCL-xL Rep-2, plate row I, 0.000305176 uM",1221423 and 1198497
same,Alpha signal (raw counts),"BCL-xL Rep-2, plate row K, 1.90735e-5 uM",1346687 and 1389856
